Assays:
HBV wild strain = experiment: Drug sensitivity test: HepG2 cells transiently transfected with wild-type HBV plasmid, intracellular replication intermediates by Southern blotting; assay type: cell-based; conditions: Hepatitis B virus, 168 h, HBV replication intermediates in cytoplasm, Southern blotting gray values, treated 7 days, read-out: half maximal inhibitory concentration (IC50) for the wild strain
Procedure: (§1) After recovery, Human hepatoma cell strain HepG2 grew as the adherent monolayer cells in the DMEM medium with 10% fetal bovine serum at 37° C. in 5% CO2. Every 3 to 5 days, cells were passaged one generation in a ratio of 1:3. 24 hours before transfection, cells were inoculated in an appropriate amount (about 2×10^5 per well in a 6-well plate). Preferably, cell density was 40 to 60% for transfection (also, 80 to 90% as well). 1 hour before transfection, the medium was replaced with fresh complete culture medium (2 ml per well), and incubated at 37° C. in 5% CO2. To each well, for example, saline for injection was added to 2 μg of DNA to make a total volume of 100 μl, followed by mixing gently and standing at room temperature. Saline for injection was added to 2 μl of VigoFect to make a total volume of 100 μl, followed by mixing gently and standing at room temperature for 5 minutes. The diluted VigoFect was added to the diluted DNA solution dropwise, mixed gently, followed by keeping the resultant working solution for transfection stand at room temperature for 15 minutes. The transfection working solution was mixed gently and 2 ml of medium was added thereto dropwise, mixed gently and then incubated at 37° C. in 5% CO2. 2 days after transfection, the medium was replaced and ADV were added thereto with the final concentrations of 0, 0.01, 0.1, 1, 5, 10 and 20 μM. […]

[1] = tested on: HBV rtE218G mutant strain; experiment: Drug sensitivity test: HepG2 cells transiently transfected with rtE218G mutagenic HBV plasmid, intracellular replication intermediates by Southern blotting; assay type: cell-based, hepatitis B virus
Procedure: as §1

[2] = tested on: rtL180M +M204V and rtN236T; conditions: cited from earlier work

Nc1ncnc2c1ncn2CCOCP(=O)(O)O [adefovir]
IC50 (HBV wild strain): 1.7 µM
IC50 ([1]; Hepatitis B virus, 168 h, HepG2 cells, HBV replication intermediates in cytoplasm, Southern blotting gray values, treated 7 days, read-out: half maximal inhibitory concentration (IC50) for the rtE218G mutant strain): 9.3 µM
IC50 of rtE218G mutant strain relative to that of the wild strain ([1]; ratio mutant IC50 / wild IC50): 5.5 times
decrease of sensitivity of combined three mutations compared with rtN236T single mutation [2]: 2 folds
